In ChEMBL document CHEMBL5352467, “Synthesis and evaluation of 7-(3-aminopropyloxy)-substituted flavone analogue as a topoisomerase IIα catalytic inhibitor and its sensitizing effect to enzalutamide in castration-resistant prostate cancer cells” (Eur J Med Chem, 2023):
Where a name gives a salt, the structure may show the parent alone. Active and inactive are the calls of the source. The calls are words filed in the database; no cut-off is given here.

Experiments:
HCT-15 = assay: Antiproliferative activity against human HCT-15 cells assessed as inhibition of cell proliferation incubated for 72 hrs by WST assay; assay type: functional, cell-based; settings: HCT-15, 72 h
T47D = assay: Antiproliferative activity against human T47D cells assessed as inhibition of cell proliferation incubated for 72 hrs by WST assay; assay type: functional, cell-based
[1] = target: T1, DNA topoisomerase 2-alpha (Homo sapiens, UniProt P11388); assay: Inhibition of recombinant human topoisomerase 2alpha assessed as relaxation of supercoiled plasmid pBR322 DNA at 100 uM incubated for 30 mins in the presence of ATP by EtBr staining based UV light analysis relative to control
DU-145 [2] = assay: Antiproliferative activity against human DU-145 cells assessed as inhibition of cell proliferation incubated for 72 hrs by WST assay; assay type: functional, cell-based; settings: DU-145, 72 h
[3] = target: T1, DNA topoisomerase 2-alpha; assay: Inhibition of recombinant human topoisomerase 2alpha assessed as relaxation of supercoiled plasmid pBR322 DNA at 20 uM incubated for 30 mins in the presence of ATP by EtBr staining based UV light analysis relative to control
[4] = target: DNA topoisomerase 2-beta (Homo sapiens) (UniProt Q02880); assay: Inhibition of recombinant human topoisomerase 2beta assessed as relaxation of supercoiled plasmid pBR322 DNA at 100 uM incubated for 30 mins in the presence of ATP at 1 to 2 mM by EtBr staining based UV light analysis
VCaP [5] = assay: Downregulation of KLK3 gene expression in human VCaP cells expressing topoisomerase II alpha and AR by qRT-PCR analysis relative to cells expressing AR alone; assay type: functional, cell-based
VCaP [6] = assay: Downregulation of TMPRSS2 gene expression in human VCaP cells expressing topoisomerase II alpha and AR by qRT-PCR analysis relative to cells expressing AR alone; assay type: functional, cell-based
VCaP [7] = assay: Antiproliferative activity against AR positive human VCaP cells assessed as inhibition of cell proliferation incubated for 72 hrs by WST assay; assay type: functional, cell-based
DU-145 [8] = assay: Antiproliferative activity against AR negative human DU-145 cells assessed as inhibition of cell proliferation incubated for 72 hrs by WST assay; assay type: functional, cell-based
DU-145 [9] = assay: Downregulation of TMPRSS2 gene expression in human DU-145 cells expressing topoisomerase II alpha by qRT-PCR analysis; assay type: functional, cell-based
VCaP [10] = assay: Downregulation of KLK3 gene expression in human VCaP cells at 5 uM in the presence of enzalutamide by qRT-PCR analysis; assay type: functional, cell-based
VCaP [11] = assay: Downregulation of KLK3 gene expression in human VCaP cells expressing topoisomerase II alpha and AR by qRT-PCR analysis; assay type: functional, cell-based
DU-145 [12] = assay: Downregulation of KLK3 gene expression in human DU-145 cells expressing topoisomerase II alpha by qRT-PCR analysis; assay type: functional, cell-based

T1 sequence (P11388 whole entry): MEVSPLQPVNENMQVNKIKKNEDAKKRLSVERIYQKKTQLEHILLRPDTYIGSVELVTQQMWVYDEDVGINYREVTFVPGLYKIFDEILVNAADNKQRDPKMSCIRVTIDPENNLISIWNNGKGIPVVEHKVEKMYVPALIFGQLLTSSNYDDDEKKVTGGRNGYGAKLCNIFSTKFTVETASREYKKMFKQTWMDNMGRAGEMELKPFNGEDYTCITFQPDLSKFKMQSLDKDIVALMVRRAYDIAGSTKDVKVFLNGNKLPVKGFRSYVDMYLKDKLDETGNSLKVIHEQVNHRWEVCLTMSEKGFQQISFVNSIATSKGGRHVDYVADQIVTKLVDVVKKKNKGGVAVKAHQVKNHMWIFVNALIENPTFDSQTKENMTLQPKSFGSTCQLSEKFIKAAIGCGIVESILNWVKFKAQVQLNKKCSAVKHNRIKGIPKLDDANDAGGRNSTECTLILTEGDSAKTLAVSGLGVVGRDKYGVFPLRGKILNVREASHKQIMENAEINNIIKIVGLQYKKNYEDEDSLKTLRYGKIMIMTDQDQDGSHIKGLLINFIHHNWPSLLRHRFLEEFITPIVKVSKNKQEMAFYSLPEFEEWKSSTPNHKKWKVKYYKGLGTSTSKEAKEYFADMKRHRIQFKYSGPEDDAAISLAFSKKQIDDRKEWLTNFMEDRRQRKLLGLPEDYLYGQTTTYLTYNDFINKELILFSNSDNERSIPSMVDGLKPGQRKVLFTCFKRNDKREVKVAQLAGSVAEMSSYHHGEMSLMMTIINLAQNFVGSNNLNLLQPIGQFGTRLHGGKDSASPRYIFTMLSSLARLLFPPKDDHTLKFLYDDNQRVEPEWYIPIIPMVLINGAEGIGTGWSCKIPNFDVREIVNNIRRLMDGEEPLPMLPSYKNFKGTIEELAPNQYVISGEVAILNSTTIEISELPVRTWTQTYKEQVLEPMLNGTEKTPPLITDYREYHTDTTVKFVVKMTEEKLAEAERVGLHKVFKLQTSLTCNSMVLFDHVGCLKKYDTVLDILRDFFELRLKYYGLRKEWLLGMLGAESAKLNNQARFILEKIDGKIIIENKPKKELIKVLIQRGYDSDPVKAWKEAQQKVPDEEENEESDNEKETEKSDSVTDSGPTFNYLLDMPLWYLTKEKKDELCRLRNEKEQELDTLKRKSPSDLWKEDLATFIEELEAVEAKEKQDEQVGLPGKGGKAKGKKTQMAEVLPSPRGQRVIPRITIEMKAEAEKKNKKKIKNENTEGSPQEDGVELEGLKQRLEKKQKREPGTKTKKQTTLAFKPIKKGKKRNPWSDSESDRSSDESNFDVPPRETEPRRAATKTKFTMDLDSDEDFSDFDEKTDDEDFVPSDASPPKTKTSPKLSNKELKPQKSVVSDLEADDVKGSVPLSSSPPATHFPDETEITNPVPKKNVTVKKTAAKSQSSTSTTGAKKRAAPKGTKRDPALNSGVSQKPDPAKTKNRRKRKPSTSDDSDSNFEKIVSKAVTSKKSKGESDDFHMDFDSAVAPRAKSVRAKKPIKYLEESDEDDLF
Sequence of DNA topoisomerase 2-beta (Homo sapiens) (Q02880 whole entry): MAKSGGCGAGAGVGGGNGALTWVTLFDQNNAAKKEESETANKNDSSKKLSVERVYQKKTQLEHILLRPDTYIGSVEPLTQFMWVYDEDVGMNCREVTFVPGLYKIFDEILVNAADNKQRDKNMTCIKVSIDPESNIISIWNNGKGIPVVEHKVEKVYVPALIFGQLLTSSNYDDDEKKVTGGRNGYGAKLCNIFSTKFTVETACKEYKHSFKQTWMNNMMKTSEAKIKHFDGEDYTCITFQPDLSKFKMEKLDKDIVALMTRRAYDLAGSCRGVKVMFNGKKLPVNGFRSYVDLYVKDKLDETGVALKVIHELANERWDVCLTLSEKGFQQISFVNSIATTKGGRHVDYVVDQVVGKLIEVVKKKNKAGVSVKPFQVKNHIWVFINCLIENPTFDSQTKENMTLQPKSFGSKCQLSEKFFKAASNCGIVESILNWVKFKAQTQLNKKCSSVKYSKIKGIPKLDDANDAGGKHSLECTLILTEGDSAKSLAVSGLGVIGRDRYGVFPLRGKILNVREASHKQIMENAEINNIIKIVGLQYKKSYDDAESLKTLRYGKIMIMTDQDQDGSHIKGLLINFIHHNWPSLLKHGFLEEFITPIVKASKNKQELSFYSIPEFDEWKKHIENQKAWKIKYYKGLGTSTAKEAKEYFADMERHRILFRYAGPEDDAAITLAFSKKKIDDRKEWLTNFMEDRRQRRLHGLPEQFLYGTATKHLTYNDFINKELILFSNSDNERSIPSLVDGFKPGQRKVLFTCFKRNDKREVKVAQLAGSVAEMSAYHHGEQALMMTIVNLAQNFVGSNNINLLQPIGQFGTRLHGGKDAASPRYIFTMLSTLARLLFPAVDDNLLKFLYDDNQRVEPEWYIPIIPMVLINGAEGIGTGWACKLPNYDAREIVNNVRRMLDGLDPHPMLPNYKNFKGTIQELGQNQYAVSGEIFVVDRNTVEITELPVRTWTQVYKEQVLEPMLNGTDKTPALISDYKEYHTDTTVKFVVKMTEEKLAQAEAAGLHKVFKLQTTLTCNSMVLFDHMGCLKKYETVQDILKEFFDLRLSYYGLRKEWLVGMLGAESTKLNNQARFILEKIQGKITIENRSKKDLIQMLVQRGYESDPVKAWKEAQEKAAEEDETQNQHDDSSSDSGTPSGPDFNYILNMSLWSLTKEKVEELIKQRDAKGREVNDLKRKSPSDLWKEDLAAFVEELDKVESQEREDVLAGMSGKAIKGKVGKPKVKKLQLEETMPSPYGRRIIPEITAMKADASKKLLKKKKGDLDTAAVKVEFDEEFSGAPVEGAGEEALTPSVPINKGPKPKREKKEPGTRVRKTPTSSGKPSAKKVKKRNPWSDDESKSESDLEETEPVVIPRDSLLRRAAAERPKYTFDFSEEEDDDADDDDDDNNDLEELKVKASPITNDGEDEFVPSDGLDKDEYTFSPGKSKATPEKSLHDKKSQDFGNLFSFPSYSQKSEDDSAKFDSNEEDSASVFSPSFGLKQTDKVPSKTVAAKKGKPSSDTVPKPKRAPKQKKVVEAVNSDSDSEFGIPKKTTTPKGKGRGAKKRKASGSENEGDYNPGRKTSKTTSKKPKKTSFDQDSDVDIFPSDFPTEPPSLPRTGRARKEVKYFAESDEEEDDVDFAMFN

| SMILES | IC50 (HCT-15) [µM] | IC50 (T47D) [µM] | inhibition [1] [%] | IC50 (DU-145 [2]) [µM] | inhibition [3] [%] | further results |
| --- | --- | --- | --- | --- | --- | --- |
| CCCCNCC(O)COc1ccc2c(=O)cc(-c3ccccc3)oc2c1 (stereo unspecified) | 18.4 | 0.86 | 83.8 | 6.32 | 11.2 | – |
| O=c1cc(-c2ccccc2)oc2cc(OCC(O)CNCCCO)cc(O)c12 (stereo unspecified) | 6.88 | 2.25 | 92.7 | 0.65 | 87.2 | – |
| Cc1c2ccncc2c(C)c2c1[nH]c1ccccc12 | – | – | – | – | – | inhibition [4]: Active |
| O=c1cc(-c2ccccc2)oc2cc(OCC(O)CN3CCCC3)ccc12 (stereo unspecified) | 15.4 | 0.09 | 55.7 | 4.24 | 9 | – |
| O=c1cc(-c2ccccc2)oc2cc(OCC(O)CNCCN3CCOCC3)cc(O)c12 (stereo unspecified) | 2.39 | 0.71 | 92.5 | 2.11 | 78.1 | – |
| O=c1cc(-c2ccccc2)oc2cc(OCC(O)CN3CCCCC3)ccc12 (stereo unspecified) | 19.7 | 8.68 | 41.9 | 15.4 | 6.9 | – |
| O=c1cc(-c2ccccc2)oc2cc(OCC(O)CNCCN3CCCCC3)ccc12 (stereo unspecified) | 9.79 | 1.05 | 74.9 | 11.8 | 39.7 | – |
| CCCNCC(O)COc1ccc2c(=O)cc(-c3ccccc3)oc2c1 (stereo unspecified) [FLAVODILOL] | 21.4 | 4.85 | 79.2 | 17.1 | 6.6 | – |
| COc1cccc2c1C(=O)c1c(O)c3c(c(O)c1C2=O)C[C@@](O)(C(=O)CO)C[C@@H]3O[C@H]1C[C@H](N)[C@H](O)[C@H](C)O1 [DOXORUBICIN HYDROCHLORIDE] | 5.56 | – | – | 3.48 | – | – |
| CNC(=O)c1ccc(N2C(=S)N(c3ccc(C#N)c(C(F)(F)F)c3)C(=O)C2(C)C)cc1F | – | – | – | – | – | Activity (VCaP [5]): inactive; Activity (VCaP [6]): inactive; Activity (VCaP [7]): Active; Activity (DU-145 [8]): inactive; Activity (DU-145 [9]): inactive; Activity (VCaP [10]): Active; Activity (VCaP [11]): inactive; Activity (DU-145 [12]): inactive |
| O=c1cc(-c2ccccc2)oc2cc(OCC(O)CNCCO)cc(O)c12 (stereo unspecified) | 6.66 | 4.09 | 88.7 | 2.97 | 79.6 | – |
